The text below walks through data of ChEMBL document CHEMBL5608113, “Targeting of CAF-induced therapy resistance in CRC organoid-stroma co-cultures” (2024).

Common to all, as to assay type: functional, Homo sapiens
What all share (conditions): Homo sapiens, read-out: Cell Viability; for viability at 10 µM: Concentration 10 uM; for viability at 1 µM: Concentration 1 uM

Assay [1] concerns Colon cancer organoid. The experiment in a line: Targeting of F14 CAF-induced therapy resistance in O14 CRC organoid-stroma co-culture. Cell viability is reported without Gefitinib.
Assay [2] relates to Colon cancer organoid. The experiment in a line: Targeting of F14 CAF-induced therapy resistance in O23 CRC organoid-stroma co-culture. Cell viability is reported without Gefitinib.
Assay [3] concerns Colon cancer organoid. The experiment in a line: Targeting of F14 CAF-induced therapy resistance in O14 CRC organoid-stroma co-culture. Cell viability is reported with Gefitinib.
For assay [4], the system named is Colon cancer organoid. The experiment in a line: Targeting of F14 CAF-induced therapy resistance in O23 CRC organoid-stroma co-culture. Cell viability is reported with Gefitinib.
Assay [5] concerns Colon cancer organoid. The experiment in a line: Targeting of F14 CAF-induced therapy resistance in O23 CRC organoid-stroma co-culture. Cell viability is reported with SN-38.

On to `CC(=O)N1CCC(c2ccc(C(=O)NC3=NCCN3)cc2C(F)(F)F)CC1` [BI 0054], for which the viability at 10 µM with Colon cancer organoid [1] amounted to 46.7%; in the assay on Colon cancer organoid [2] it was 120%; in the assay with Colon cancer organoid [3], 17.4%; with Colon cancer organoid [4] it was 54.5%; in the assay on Colon cancer organoid [5] it was 74.4%.

On to `CN(C)C(=O)Cn1cc(-c2nc(C3(c4ccc(-c5cnc(N)nc5)cc4)CC3)no2)cn1` [BI 0153], for which the viability at 10 µM in the assay on Colon cancer organoid [1] amounted to 110%; with Colon cancer organoid [2], 171%; in the assay with Colon cancer organoid [3], 82.1%; in the assay with Colon cancer organoid [4] it was 48.9%; in the assay on Colon cancer organoid [5] it was 98.3%.

Consider `COc1ccc2c(O[C@@H]3C[C@H]4C(=O)N[C@]5(C(=O)O)CC5/C=C\CCCCC[C@H](NC(=O)OC5CCCC5)C(=O)N4C3)cc(-c3csc(NC(=O)C(C)C)n3)nc2c1C` (stereo not given in full) [BI 1230], for which the viability at 10 µM in the assay with Colon cancer organoid [1] was found to be 152%; with Colon cancer organoid [2] it was 141%; in the assay on Colon cancer organoid [3], 50%; with Colon cancer organoid [4], 63.1%; in the assay with Colon cancer organoid [5] it was 77.1%.

As to `O=C(N[C@H]1CCCCC/C=C\C2C[C@@]2(C(=O)O)NC(=O)[C@@H]2C[C@@H](Oc3ccncc3)CN2C1=O)OC1CCCC1` (stereo not given in full) [BI 1675], the viability at 10 µM in the assay with Colon cancer organoid [1] was 102%; in the assay with Colon cancer organoid [2], 136%; in the assay on Colon cancer organoid [3] it was 62%; with Colon cancer organoid [4], 51%; in the assay with Colon cancer organoid [5] it was 89.7%.

As to `CCOCCn1cc(C(=O)Nc2ccc(-n3nc(-c4cccnc4)cc3C(F)(F)F)cn2)ccc1=O` [BI 1935], the viability at 10 µM in the assay on Colon cancer organoid [1] turned out to be 82.6%; with Colon cancer organoid [2], 98.5%; in the assay on Colon cancer organoid [3], 40.1%; with Colon cancer organoid [4] it was 70.8%; in the assay with Colon cancer organoid [5], 64.4%.

Consider `C[C@H](NC(=O)c1cnc2n1[C@](C)(Cc1ccc(C#N)cc1)C(=O)N2c1cc(Cl)c(F)c(Cl)c1)C(=O)NC1(c2ccccn2)CC1` [BI 1950], for which the viability at 10 µM in the assay on Colon cancer organoid [1] came out at 125%; with Colon cancer organoid [2], 104%; with Colon cancer organoid [3], 44.4%; in the assay with Colon cancer organoid [4], 52.2%; with Colon cancer organoid [5], 85.8%.

For `O=C(Nc1ccc(-n2nc(-c3cccnc3)cc2C(F)(F)F)cn1)c1ccc(-c2ccccc2)c(F)c1` [BI 2049], the viability at 1 µM in the assay on Colon cancer organoid [1] was determined as 132%; with Colon cancer organoid [2], 103%; in the assay with Colon cancer organoid [3], 24.6%; with Colon cancer organoid [4], 32.7%; in the assay with Colon cancer organoid [5], 97.9%.

Consider `CC(C)(C#Cc1ccc(NC(=O)COc2ccccc2C(=O)c2ccccc2)c(Cl)c1)C(=O)O` [BI 2439], for which the viability at 10 µM worked out at 159% in the assay with Colon cancer organoid [1]; 160% in the assay on Colon cancer organoid [2]; 36.7% in the assay with Colon cancer organoid [3]; 98.3% in the assay on Colon cancer organoid [4]; 82.7% with Colon cancer organoid [5].

For the molecule `Cc1c(NC(=O)COc2ccc(Cl)cc2C(=O)c2cc(F)cc(C(F)(F)F)c2)ccc(C(=O)O)c1F` [BI 2540], the viability at 10 µM in the assay on Colon cancer organoid [1] was 124%; in the assay with Colon cancer organoid [2] it was 132%; in the assay on Colon cancer organoid [3], 64.5%; with Colon cancer organoid [4], 79.4%; in the assay with Colon cancer organoid [5], 67.8%.

Consider `O=C(NC[C@@H]1[C@H]2CN(C(=O)OCc3cc(C(F)(F)F)cc(C(F)(F)F)c3)C[C@@H]12)c1ccc2[nH]nnc2c1` [BI 2545], for which the viability at 10 µM worked out at 105% with Colon cancer organoid [1]; 142% in the assay with Colon cancer organoid [2]; 43% in the assay on Colon cancer organoid [3]; 83.8% in the assay with Colon cancer organoid [4]; 105% in the assay with Colon cancer organoid [5].

In the case of `Cc1nccc(COC(=O)N2C[C@@H]3[C@@H](CNC(=O)c4ccc5[nH]nnc5c4)[C@@H]3C2)n1` [BI 3017], the viability at 10 µM is 7.82% in the assay with Colon cancer organoid [1]; 161% with Colon cancer organoid [2]; 7.21% in the assay with Colon cancer organoid [3]; 38.3% with Colon cancer organoid [4]; 76% in the assay with Colon cancer organoid [5].

For the molecule `CCS(=O)(=O)c1cc2cc(C[C@@](O)(CC(C)(C)c3ccc(F)cc3C(N)=O)C(F)(F)F)[nH]c2cn1` [BI 3047], the viability at 1 µM with Colon cancer organoid [1] worked out at 137%; in the assay with Colon cancer organoid [2], 139%; in the assay with Colon cancer organoid [3], 44.9%; with Colon cancer organoid [4], 46.6%; in the assay on Colon cancer organoid [5], 71%.

In the case of `CCOC(=O)c1cc2cc(-c3cc(C(=O)NCc4ccc(C(=O)O)cc4)nn3C)ccc2[nH]1` [BI 4394], the viability at 1 µM worked out at 95.7% in the assay on Colon cancer organoid [1]; 148% in the assay on Colon cancer organoid [2]; 59.3% in the assay with Colon cancer organoid [3]; 77.1% in the assay with Colon cancer organoid [4]; 83.8% in the assay on Colon cancer organoid [5].

Turning to `Cn1nc(C(=O)NCc2ccc(C(=O)O)cc2)cc1-c1ccc2[nH]ccc2c1` [BI 4395], the viability at 10 µM was determined as 95.3% in the assay on Colon cancer organoid [1]; 124% in the assay on Colon cancer organoid [2]; 62.1% with Colon cancer organoid [3]; 52.8% with Colon cancer organoid [4]; 77.4% in the assay with Colon cancer organoid [5].

Consider `Cn1c(C2(NC(=O)c3ccc(NCC4CCCCC4)nc3)CCC2)nc2ccc(/C=C/C(=O)O)cc21` [BI 7656], for which the viability at 10 µM was determined as 101% in the assay on Colon cancer organoid [1]; 131% in the assay with Colon cancer organoid [2]; 45.1% in the assay on Colon cancer organoid [3]; 77.7% in the assay on Colon cancer organoid [4]; 69.9% with Colon cancer organoid [5].

For `CS(=O)(=O)NCC[C@H](NC(=O)c1cncc2c1cnn2-c1ccc(F)cc1)c1ccnc(S(C)(=O)=O)c1` [BI 9307], the viability at 1 µM in the assay on Colon cancer organoid [1] is 105%; in the assay on Colon cancer organoid [2], 114%; in the assay with Colon cancer organoid [3] it was 37.4%; in the assay on Colon cancer organoid [4] it was 116%; in the assay with Colon cancer organoid [5] it was 70.6%.

Consider `C[C@@]1(Cc2ccc(C#N)cc2)C(=O)N(c2cc(Cl)cc(Cl)c2)c2ncc(C(=O)NC3(c4nc(C5CCC5)no4)CC3)n21` [BI 9446], for which the viability at 10 µM with Colon cancer organoid [1] was found to be 80.5%; with Colon cancer organoid [2], 80.2%; with Colon cancer organoid [3] it was 23%; in the assay with Colon cancer organoid [4], 43%; with Colon cancer organoid [5], 66.3%.

For `CC(=O)N1CCC(c2ccc(C(=O)NC(=N)N)cc2C(F)(F)F)CC1` [BI 9627], the viability at 10 µM is 102% with Colon cancer organoid [1]; 109% in the assay with Colon cancer organoid [2]; 42.9% in the assay on Colon cancer organoid [3]; 53.2% with Colon cancer organoid [4]; 106% in the assay on Colon cancer organoid [5].

Take `CCC(=O)N[C@H]1CC[C@@H](C(=O)N(C)c2ccc(-c3nc4ccccc4o3)cc2)C1` [BI 99179]: the viability at 10 µM in the assay on Colon cancer organoid [1] was 48.5%; in the assay on Colon cancer organoid [2] it was 168%; with Colon cancer organoid [3], 44.8%; in the assay with Colon cancer organoid [4] it was 82%; in the assay with Colon cancer organoid [5] it was 124%.

In the case of `CCC(=O)N[C@@H]1CC[C@H](C(=O)N(C)c2ccc(-c3nc4ccccc4o3)cc2)C1` [BI 99990], the viability at 10 µM in the assay on Colon cancer organoid [1] stood at 150%; in the assay with Colon cancer organoid [2], 154%; in the assay with Colon cancer organoid [3], 37.6%; with Colon cancer organoid [4], 69.7%; with Colon cancer organoid [5], 100%.

In the case of `CS(=O)(=O)c1cc(C2(NC(=O)c3cncc4c3cnn4-c3ccc(F)cc3)CC2)ccn1` [BI 639667], the viability at 1 µM in the assay on Colon cancer organoid [1] worked out at 126%; with Colon cancer organoid [2], 135%; with Colon cancer organoid [3], 39%; with Colon cancer organoid [4] it was 107%; in the assay on Colon cancer organoid [5] it was 94.7%.

Consider `CCS(=O)(=O)c1cc2cc(C[C@](O)(CC(C)(C)c3ccc(F)cc3C(N)=O)C(F)(F)F)[nH]c2cn1` [BI 653048], for which the viability at 10 µM is 100% with Colon cancer organoid [1]; 161% in the assay with Colon cancer organoid [2]; 42.7% in the assay with Colon cancer organoid [3]; 68.4% in the assay on Colon cancer organoid [4]; 110% in the assay on Colon cancer organoid [5].

As to `CN(C)C(=O)Cn1cc(-c2nc([C@@](C)(c3ccc(-c4cnc(N)nc4)cc3)C3CC3)no2)cn1` [BI 665915], the viability at 1 µM was found to be 102% in the assay on Colon cancer organoid [1]; 181% in the assay on Colon cancer organoid [2]; 56.8% in the assay on Colon cancer organoid [3]; 79.9% with Colon cancer organoid [4]; 85.2% in the assay with Colon cancer organoid [5].

On to `CC[C@H](CC(=O)O)n1c(=O)c2ncccc2n(Cc2cn(C)c3cc(C)cc(C)c23)c1=O` [BI-1942], for which the viability at 10 µM stood at 93.3% with Colon cancer organoid [1]; 113% in the assay with Colon cancer organoid [2]; 37.9% in the assay with Colon cancer organoid [3]; 60.8% in the assay with Colon cancer organoid [4]; 65% in the assay on Colon cancer organoid [5].

Regarding `CN(C)C(=O)c1sc2nc(N3CCC(S(C)(=O)=O)CC3)cc(C(F)(F)F)c2c1N` [BI-5026], the viability at 10 µM is 108% in the assay with Colon cancer organoid [1]; 83.8% in the assay on Colon cancer organoid [2]; 51% in the assay on Colon cancer organoid [3]; 50% in the assay with Colon cancer organoid [4]; 79.7% in the assay on Colon cancer organoid [5].

Consider `CCC(F)(F)c1cc(N2CCC(S(C)(=O)=O)CC2)nc2sc(C(N)=O)c(N)c12` [BI-605906], for which the viability at 10 µM in the assay with Colon cancer organoid [1] came to 125%; in the assay on Colon cancer organoid [2], 102%; in the assay on Colon cancer organoid [3], 50.7%; in the assay with Colon cancer organoid [4], 53.3%; in the assay on Colon cancer organoid [5], 62.6%.

With `O=c1nc(-c2ccccn2)sc2ccccc12` [BTZO-1], the viability at 10 µM is 117% in the assay on Colon cancer organoid [1]; 186% in the assay with Colon cancer organoid [2]; 69.4% in the assay on Colon cancer organoid [3]; 83.1% with Colon cancer organoid [4]; 120% with Colon cancer organoid [5].

Turning to `O=C1NC(c2ccccn2)Sc2ccccc21` (stereo not given) [BTZO-4], the viability at 10 µM in the assay on Colon cancer organoid [1] stood at 112%; in the assay with Colon cancer organoid [2], 142%; with Colon cancer organoid [3], 48.9%; in the assay with Colon cancer organoid [4], 56.6%; with Colon cancer organoid [5], 100%.

Regarding `C=CC(=O)Nc1ccc2[nH]c(=O)n(C3CCN(Cc4ccc(-c5nc6cc[nH]c(=O)c6cc5-c5ccccc5)cc4)CC3)c2c1` [Borussertib], the viability at 10 µM with Colon cancer organoid [1] is 28.5%; in the assay on Colon cancer organoid [2], 9.17%; with Colon cancer organoid [3], 14.3%; in the assay with Colon cancer organoid [4], 7.88%; in the assay with Colon cancer organoid [5], 10.6%.

For orientation: viability means a read-out of living cells in per cent, often relative to untreated cells.
